Experimental data reported in PubChem BioAssay (NCI).
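How tested: cells in 96-well plates exposed to compound for 48 hours at five concentrations. The concentration for 50% growth inhibition is given as GI50. TGI denotes the concentration required for complete inhibition of growth.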

Tests used:
Experiment in all cases: growth of human tumour cells (NCI), 48 h
[1] = tested on: OVCAR-5 ovarian
[2] = tested on: OVCAR-8 ovarian
[3] = tested on: HS 578T breast
[4] = tested on: SF-539 CNS
[5] = tested on: SF-268 CNS
[6] = tested on: NCI-H226 lung
[7] = tested on: HT29 colon
[8] = tested on: 786-0 renal
[9] = tested on: RPMI-8226 leukemia
[10] = tested on: MDA-N
[11] = tested on: NCI-H522 lung

Row | Compound | TGI [1] | TGI [2] | TGI [3] | TGI [4] | TGI [5] | TGI [6] | TGI [7] | TGI [8] | TGI [9] | TGI [10] | TGI [11] | GI50 [1] | GI50 [2] | GI50 [3] | GI50 [4] | GI50 [5] | GI50 [6] | GI50 [7] | GI50 [9] | GI50 [11]
1 | Cc1cn(CCCCOC(=O)NC(CCCN=C(N)N)C(=O)O)c(=O)[nH]c1=O (centres undefined) | > 100 µM | > 100 µM | > 100 µM | > 100 µM | > 100 µM | > 100 µM | > 100 µM | > 100 µM | > 100 µM | > 100 µM | – | – | – | – | – | – | – | – | – | –
2 | C/C1=C\[C@@H](C)C[C@@H](C)OC(=O)[C@@H](C)NC(=O)[C@H](Cc2ccc(O)c(Br)c2)N(C)C(=O)CNC(=O)[C@H](C)C1 | > 100 µM | > 40.4 µM | 0.69 µM | 0.677 µM | 1.89 µM | – | > 100 µM | 5.84 µM | 56.1 µM | > 100 µM | – | – | – | – | – | – | – | – | – | –
3 | COC1CC(O[C@H]2CC[C@@]3(C)C(=CCC4(O)C3CCC35C(=O)OC6(C)O[C@@]43CCC65)C2)OC(C)C1O (some centres undefined) | > 100 µM | > 100 µM | – | > 100 µM | > 100 µM | > 100 µM | > 100 µM | > 100 µM | > 100 µM | – | > 100 µM | – | – | – | – | – | – | – | – | –
4 | OC(c1cc2ccccc2[nH]1)C(O)(c1cc2ccccc2[nH]1)c1cc2ccccc2[nH]1 (centres undefined) | 102 µM | 75 µM | – | 88.7 µM | 85.2 µM | 40.4 µM | 36.2 µM | 20.8 µM | > 245 µM | – | 37.5 µM | – | – | – | – | – | – | – | – | –
5 | CS(=O)(=O)c1ccc(C(=O)O[C@@H]2C(=O)N3CC[C@H]4OC(O)[C@@H]2[C@H]43)cc1 (some centres undefined) | > 100 µM | > 100 µM | – | > 100 µM | > 100 µM | > 100 µM | > 100 µM | > 100 µM | > 100 µM | – | – | – | – | – | – | – | – | – | – | –
6 | CCOC(=O)c1ccc(Nc2nc3ccccc3n3cccc23)cc1 | > 100 µM | > 100 µM | > 100 µM | > 100 µM | > 100 µM | – | > 100 µM | > 100 µM | > 100 µM | > 100 µM | > 100 µM | – | – | – | – | – | – | – | – | –
7 | N=C1c2ccccc2C(=O)c2c(NCCNCCO)ccc(O)c21 | 84.7 µM | > 76.2 µM | – | 16.3 µM | 14.2 µM | 44.7 µM | > 100 µM | > 38.7 µM | 24.6 µM | – | 13.3 µM | – | – | – | – | – | – | – | – | –
8 | CC(=O)OC(OC(C)=O)c1c2ccccc2cc2ccccc12 | 75.6 µM | 41.8 µM | 78.3 µM | 36.1 µM | 51.8 µM | 37.7 µM | 28.6 µM | 43.5 µM | 87.2 µM | 63.7 µM | – | – | – | – | – | – | – | – | – | –
9 | CC(=O)/C(=C/N1CC(=O)NC1=S)C(=O)Nc1ccccc1C | > 100 µM | > 100 µM | – | > 100 µM | > 100 µM | – | > 100 µM | > 100 µM | – | > 100 µM | – | – | – | – | – | – | – | – | – | –
10 | Nc1ccc2nc3n(c2c1)C(c1c(F)cccc1F)SC3 (centres undefined) | > 100 µM | > 100 µM | > 100 µM | > 100 µM | > 100 µM | – | > 100 µM | > 100 µM | > 100 µM | > 100 µM | > 100 µM | – | – | – | – | – | – | – | – | –
11 | Cc1cc(OP2(=O)NCc3ccncc3O2)ccc1Cl (centres undefined) | > 100 µM | > 100 µM | – | > 100 µM | – | > 100 µM | > 100 µM | > 100 µM | > 100 µM | > 100 µM | – | – | – | – | – | – | – | – | – | –
12 | COc1c(O)cc2c(c1O)C(=O)C(Cc1ccc(O)cc1)CO2 (centres undefined) | > 100 µM | > 100 µM | > 100 µM | > 100 µM | > 100 µM | – | > 100 µM | > 100 µM | > 100 µM | > 100 µM | > 100 µM | – | – | – | – | – | – | – | – | –
13 | CC(C)(Oc1ccc2c(=O)cc(-c3ccc(Cl)cc3)oc2c1)C(=O)Nc1c(Cl)cccc1Cl | > 100 µM | > 100 µM | – | > 100 µM | > 100 µM | – | > 100 µM | > 100 µM | > 100 µM | – | > 100 µM | – | – | – | – | – | – | – | – | –
14 | CC1=C(O)C(=O)C2C(=O)C1C(C)C2c1ccccc1 (centres undefined) | > 100 µM | > 100 µM | – | > 100 µM | > 100 µM | > 100 µM | > 100 µM | > 100 µM | > 100 µM | – | > 100 µM | – | – | – | – | – | – | – | – | –
15 | COc1ccc(C/C=C(\C)CCO)cc1 | > 100 µM | > 100 µM | > 100 µM | > 100 µM | > 100 µM | – | > 100 µM | > 100 µM | 89.8 µM | > 100 µM | > 100 µM | – | – | – | – | – | – | – | – | –
16 | C[n+]1c2ccccc2n2c3ccccc3c(NCc3ccco3)c(C#N)c21 | 12 µM | – | 10.8 µM | 8.79 µM | 11.3 µM | 16 µM | > 100 µM | 12.8 µM | – | 10.9 µM | 2.83 µM | – | – | – | – | – | – | – | – | –
17 | O=C(N/N=C\c1ccc(N(CCCl)CCCl)cc1)c1cccnc1 | > 100 µM | > 100 µM | > 100 µM | > 100 µM | > 100 µM | 11.4 µM | > 100 µM | – | > 100 µM | – | > 100 µM | > 100 µM | 39.8 µM | 65.5 µM | 29.3 µM | 27 µM | 2.13 µM | > 100 µM | 44.8 µM | 29 µM
18 | CC(C)CC(C#CCCOC(=O)c1ccccc1)OC(=O)c1ccccc1 (centres undefined) | > 10 µM | > 10 µM | > 10 µM | > 10 µM | > 10 µM | > 10 µM | > 10 µM | > 10 µM | – | > 10 µM | – | – | – | – | – | – | – | – | – | –
19 | CC12CP(=O)(O)CC1C2(Cl)Cl (centres undefined) | > 100 µM | > 100 µM | > 100 µM | > 100 µM | > 100 µM | > 100 µM | > 100 µM | > 100 µM | > 100 µM | – | > 100 µM | – | – | – | – | – | – | – | – | –
20 | C=C(C)[C@@]12C[C@H](OC(=O)[C@H](O)[C@@H](NC(=O)c3ccccc3)c3ccccc3)C(C)=C1[C@@H](OC(C)=O)C(=O)[C@@]1(C)C([C@@H]2OC(=O)c2cc(F)cc(F)c2)C2(OC(C)=O)CO[C@@H]2C[C@@H]1O (some centres undefined) | 1.51 µM | > 4.03 µM | 0.215 µM | 0.259 µM | > 7.16 µM | > 10 µM | 1.4 µM | 3.3 µM | 0.547 µM | – | – | – | – | – | – | – | – | – | – | –
21 | O=C1C=CC(=O)c2c(O)c(NCCN3CCOCC3)c(Cl)c(O)c21 | – | > 10 µM | 6.54 µM | 3.33 µM | 6.12 µM | > 10 µM | 4.7 µM | 5.47 µM | – | 5.33 µM | – | – | – | – | – | – | – | – | – | –
